From US20260232658A1, “AZETIDINYL BENZOXAZOLE COMPOUNDS AND THEIR USE AS MER AND AXL INHIBITORS” (DONG-A ST CO., LTD., priority 2022, published 2026)

Experiments:
[1] = target: T1, human AXL (473-end) (Homo sapiens, UniProt P30530); test: HTRF kinase activity biochemical assay, AXL; conditions: recombinant kinase, 10 uM ATP, 30 minutes pre-incubation; read-out: HTRF AXL IC50;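 further: phosphorylation of a biotinylated tyrosine kinase substrate detected via Eu3+-cryptate anti-TK antibody and streptavidin-XL665, fluorescence read after a 1 h incubation at room temperature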
T1 construct: human AXL (473-end); purchased SignalChem, Canada
T1 sequence (P30530 473-894 limits assumed): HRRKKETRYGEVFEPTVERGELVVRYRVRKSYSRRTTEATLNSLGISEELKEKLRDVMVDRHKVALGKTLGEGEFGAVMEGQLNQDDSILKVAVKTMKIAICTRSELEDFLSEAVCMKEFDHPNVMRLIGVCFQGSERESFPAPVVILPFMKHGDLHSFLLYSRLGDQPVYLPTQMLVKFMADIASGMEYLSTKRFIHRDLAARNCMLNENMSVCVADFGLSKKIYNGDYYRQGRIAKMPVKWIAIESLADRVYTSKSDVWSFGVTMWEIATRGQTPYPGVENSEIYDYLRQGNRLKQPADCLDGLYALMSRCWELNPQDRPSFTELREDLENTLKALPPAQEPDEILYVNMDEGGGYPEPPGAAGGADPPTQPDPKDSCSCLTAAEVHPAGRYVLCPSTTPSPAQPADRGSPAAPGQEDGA

[2] = target: T2, TYRO3 (455-end) (Homo sapiens, UniProt Q06418); test: HTRF kinase activity biochemical assay, TYRO3; conditions: recombinant kinase, 10 uM ATP, 30 minutes pre-incubation; read-out: HTRF TYRO IC50;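 further: biotinylated tyrosine kinase substrate phosphorylation detected via streptavidin-XL665 and Eu3+-cryptate anti-phospho antibody time-resolved fluorescence, read after 1 h detection at room temperature, 384-well format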
T2 construct: TYRO3 (455-end); purchased SignalChem, Canada
T2 sequence (Q06418 455-890 limits assumed): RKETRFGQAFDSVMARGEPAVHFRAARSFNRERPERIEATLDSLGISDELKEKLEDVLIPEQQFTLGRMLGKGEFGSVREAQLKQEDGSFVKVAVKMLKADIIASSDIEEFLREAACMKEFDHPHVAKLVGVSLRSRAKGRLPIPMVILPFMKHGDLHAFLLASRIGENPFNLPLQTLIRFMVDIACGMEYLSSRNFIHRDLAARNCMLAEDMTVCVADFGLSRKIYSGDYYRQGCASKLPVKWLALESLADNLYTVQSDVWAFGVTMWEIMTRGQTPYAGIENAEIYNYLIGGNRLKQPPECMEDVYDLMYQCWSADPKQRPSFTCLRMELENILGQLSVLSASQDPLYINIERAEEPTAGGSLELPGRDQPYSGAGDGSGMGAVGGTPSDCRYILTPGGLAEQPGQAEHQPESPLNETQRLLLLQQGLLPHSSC

[3] = target: T3, human MER (528-end) (Homo sapiens, UniProt Q12866); test: HTRF kinase activity biochemical assay, MER; conditions: recombinant kinase, 10 uM ATP, 30 minutes pre-incubation; read-out: HTRF MERTK IC50;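 further: phosphorylation of a biotin-tagged tyrosine kinase substrate detected by Eu3+-cryptate antibody and streptavidin-XL665 time-resolved fluorescence, read after 1 h at room temperature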
T3 construct: human MER (528-end); purchased Carnabio, Japan
T3 sequence (Q12866 528-999 limits assumed): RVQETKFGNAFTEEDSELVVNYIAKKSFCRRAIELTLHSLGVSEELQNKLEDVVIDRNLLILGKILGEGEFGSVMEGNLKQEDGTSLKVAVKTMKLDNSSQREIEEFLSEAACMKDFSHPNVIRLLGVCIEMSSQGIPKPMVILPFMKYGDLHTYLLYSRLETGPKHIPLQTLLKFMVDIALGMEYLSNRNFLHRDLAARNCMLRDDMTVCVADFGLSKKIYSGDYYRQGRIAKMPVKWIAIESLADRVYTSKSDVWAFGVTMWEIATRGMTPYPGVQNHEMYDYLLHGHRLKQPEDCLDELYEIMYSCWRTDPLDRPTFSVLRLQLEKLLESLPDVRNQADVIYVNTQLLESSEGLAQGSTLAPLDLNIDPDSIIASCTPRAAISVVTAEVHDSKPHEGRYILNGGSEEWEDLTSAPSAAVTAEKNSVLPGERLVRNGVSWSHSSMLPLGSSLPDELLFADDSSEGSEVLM

SMILES	IC50 [1] [nM]	IC50 [2] [nM]	IC50 [3] [nM]
Cn1cc(Nc2ncc(C3CN(c4nc5ccc(-c6ccc(OCCO)cc6)cc5o4)C3)nc2C(N)=O)cn1 [Example 89, 6-(1-{6-[4-(2-hydroxyethoxy)phenyl]-1,3-benzoxazol-2-yl}azetidin-3-yl)-3-[(1-methyl-1H-pyrazol-4-yl)amino]pyrazine-2-carboxamide]	6	260	1
Cn1cc(Nc2ncc(C3CN(c4nc5ccc(-c6cnn(CCO)c6)cc5o4)C3)nc2C(N)=O)cn1 [Example 90, 6-(1-{6-[1-(2-hydroxyethyl)-1H-pyrazol-4-yl]-1,3-benzoxazol-2-yl}azetidin-3-yl)-3-[(1-methyl-1H-pyrazol-4-yl)amino]pyrazine-2-carboxamide]	4	880	2
COCCn1cc(-c2ccc3nc(N4CC(c5cnc(Nc6cnn(C)c6)c(C(N)=O)n5)C4)oc3c2)cn1 [Example 91, 6-(1-{6-[1-(2-methoxyethyl)-1H-pyrazol-4-yl]-1,3-benzoxazol-2-yl}azetidin-3-yl)-3-[(1-methyl-1H-pyrazol-4-yl)amino]pyrazine-2-carboxamide]	4	1430	2
CC(C)(O)CCOc1ccc2nc(N3CC(c4cnc(Nc5cnn(C(C)(C)C)c5)c(C(N)=O)n4)C3)oc2c1 [Example 94, 3-[(1-tert-butyl-1H-pyrazol-4-yl)amino]-6-{1-[6-(3-hydroxy-3-methylbutoxy)-1,3-benzoxazol-2-yl]azetidin-3-yl}pyrazine-2-carboxamide]	3	910	< 1
Cn1cc(Nc2ncc(C3CN(c4nc5ccc(OCCC(C)(C)OC(=O)CNC(=O)OC(C)(C)C)cc5o4)C3)nc2C(N)=O)cn1 [Example 95A, 4-{[2-(3-f{6-carbamoyl-5-[(1-methyl-1H-pyrazol-4-yl)amino]pyrazin-2-yl}azetidin-1-yl)-1,3-benzoxazol-6-yl]oxy}-2-methylbutan-2-yl [(tert-butoxycarbonyl)amino]acetate]	3	460	< 1
CC(C)(O)CCOc1ccc2nc(N3CC(c4cnc(Nc5cnn(CC(C)(C)O)c5)c(C(N)=O)n4)C3)oc2c1 [Example 96, 6-{1-[6-(3-hydroxy-3-methylbutoxy)-1,3-benzoxazol-2-yl]azetidin-3-yl}-3-{[1-(2-hydroxy-2-methylpropyl)-1H-pyrazol-4-yl]amino}pyrazine-2-carboxamide]	12	1610	3
CC(C)(O)CCOc1ccc2nc(N3CC(c4cnc(Nc5cnn(COCC[Si](C)(C)C)c5)c(C(N)=O)n4)C3)oc2c1 [Example 96A, 6-{1-[6-(3-hydroxy-3-methylbutoxy)-1,3-benzoxazol-2-yl]azetidin-3-yl}-3-[(1-{[2-(trimethylsilyl)ethoxy]methyl}-1H-pyrazol-4-yl)amino]pyrazine-2-carboxamide]	31	1390	11
CC(C)(O)CCOc1ccc2nc(N3CC(c4cnc(Nc5cn[nH]c5)c(C(N)=O)n4)C3)oc2c1 [Example 96B, 6-{1-[6-(3-hydroxy-3-methylbutoxy)-1,3-benzoxazol-2-yl]azetidin-3-yl}-3-[(1H-pyrazol-4-yl)amino]pyrazine-2-carboxamide]	7	670	2

Results, then the molecule that gave them:

IC50 [1] [nM]	IC50 [2] [nM]	IC50 [3] [nM]	SMILES
3	80	< 1	Cn1cc(Nc2ncc(C3CN(c4nc5ccc(-c6cnn(C)c6)cc5o4)C3)nc2C(N)=O)cn1 [Example 92, 3-[(1-methyl-1H-pyrazol-4-yl)amino]-6-{1-[6-(1-methyl-1H-pyrazol-4-yl)-1,3-benzoxazol-2-yl]azetidin-3-yl}pyrazine-2-carboxamide]
2	44	< 1	Cn1cc(Nc2ncc(C3CN(c4nc5ccc(OCc6cn[nH]c6)cc5o4)C3)nc2C(N)=O)cn1 [Example 93, 3-[(1-methyl-1H-pyrazol-4-yl)amino]-6-(1-{6-[(1H-pyrazol-4-yl)methoxy]-1,3-benzoxazol-2-yl}azetidin-3-yl)pyrazine-2-carboxamide]
3	280	< 1	Cn1cc(Nc2ncc(C3CN(c4nc5ccc(OCCC(C)(C)OC(=O)CN)cc5o4)C3)nc2C(N)=O)cn1 [Example 95, 4-{[2-(3-{6-carbamoyl-5-[(1-methyl-1H-pyrazol-4-yl)amino]pyrazin-2-yl}azetidin-1-yl)-1,3-benzoxazol-6-yl]oxy}-2-methylbutan-2-yl glycinate]
4	150	1	Cn1cc(COc2ccc3nc(N4CC(c5cnc(Nc6cnn(C)c6)c(C(N)=O)n5)C4)oc3c2)cn1 [Example 97, 3-[(1-methyl-1H-pyrazol-4-yl)amino]-6-(1-{6-[(1-methyl-1H-pyrazol-4-yl)methoxy]-1,3-benzoxazol-2-yl}azetidin-3-yl)pyrazine-2-carboxamide]
7	1280	1.1	Cn1cnc(COc2ccc3nc(N4CC(c5cnc(Nc6cnn(C)c6)c(C(N)=O)n5)C4)oc3c2)c1 [Example 98, 6-(1-{6-[(1-methyl-1H-imidazol-4-yl)methoxy]-1,3-benzoxazol-2-yl}azetidin-3-yl)-3-[(1-methyl-1H-pyrazol-4-yl)amino]pyrazine-2-carboxamide]
1.6	24	< 1	Cc1ncc(-c2ccc3nc(N4CC(c5cnc(Nc6cnn(C)c6)c(C(N)=O)n5)C4)oc3c2)s1 [Example 99, 3-[(1-methyl-1H-pyrazol-4-yl)amino]-6-{1-[6-(2-methyl-1,3-thiazol-5-yl)-1,3-benzoxazol-2-yl]azetidin-3-yl}pyrazine-2-carboxamide]
4	120	1	COCCOc1ccc(-c2ccc3nc(N4CC(c5cnc(Nc6cnn(C)c6)c(C(N)=O)n5)C4)oc3c2)cc1 [Example 100, 6-(1-{6-[4-(2-methoxyethoxy)phenyl]-1,3-benzoxazol-2-yl}azetidin-3-yl)-3-[(1-methyl-1H-pyrazol-4-yl)amino]pyrazine-2-carboxamide]
12	1490	8	CCOC(C)(C)c1ccc2nc(N3CC(c4cnc(Nc5cnn(C)c5)c(C(N)=O)n4)C3)oc2c1 [Example 101, 6-{1-[6-(2-ethoxypropan-2-yl)-1,3-benzoxazol-2-yl]azetidin-3-yl}-3-[(1-methyl-1H-pyrazol-4-yl)amino]pyrazine-2-carboxamide]
2	100	< 1	COc1cnc(Oc2ccc3nc(N4CC(c5cnc(Nc6cnn(C)c6)c(C(N)=O)n5)C4)oc3c2)nc1 [Example 102, 6-(1-{6-[(5-methoxypyrimidin-2-yl)oxy]-1,3-benzoxazol-2-yl}azetidin-3-yl)-3-[(1-methyl-1H-pyrazol-4-yl)amino]pyrazine-2-carboxamide]
3	710	< 1	Cn1cc(Nc2ccc(C3CN(c4nc5ccc(Oc6cccnn6)cc5o4)C3)nc2C(N)=O)cn1 [Example 103, 3-[(1-methyl-1H-pyrazol-4-yl)amino]-6-(1-{6-[(pyridazin-3-yl)oxy]-1,3-benzoxazol-2-yl}azetidin-3-yl)pyridine-2-carboxamide]
59	3500	8	Cn1cc(Nc2ncc(C3CN(c4nc5ccc(OCc6cnn(CCO)c6)cc5o4)C3)nc2C(N)=O)cn1 [Example 104, 6-[1-(6-{[1-(2-hydroxyethyl)-1H-pyrazol-4-yl]methoxy}-1,3-benzoxazol-2-yl)azetidin-3-yl]-3-[(1-methyl-1H-pyrazol-4-yl)amino]pyrazine-2-carboxamide]
